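Protocol summary: plate cells (96-well), add compound at 5 concentrations, incubate 48 h, interpolate endpoints linearly. At the TGI there is no net growth.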
Experiments:
Assay in all cases: NCI tumour cell line growth inhibition, 48 h
PC-3 prostate = system: PC-3 prostate
MDA-MB-231 breast = system: MDA-MB-231 breast
A549 NSCLC = system: A549 NSCLC
TK-10 renal = system: TK-10 renal
NCI-H23 lung = system: NCI-H23 lung
U251 CNS = system: U251 CNS
OVCAR-3 ovarian = system: OVCAR-3 ovarian
CAKI-1 renal = system: CAKI-1 renal
SF-295 CNS = system: SF-295 CNS
NCI/ADR-RES ovarian = system: NCI/ADR-RES ovarian
KM12 colon = system: KM12 colon
HCC-2998 colon = system: HCC-2998 colon
SN12C renal = system: SN12C renal
UACC-62 melanoma = system: UACC-62 melanoma
OVCAR-4 ovarian = system: OVCAR-4 ovarian
SNB-19 CNS = system: SNB-19 CNS
SK-MEL-28 melanoma = system: SK-MEL-28 melanoma
HL-60(TB) leukemia = system: HL-60(TB) leukemia
NCI-H226 lung = system: NCI-H226 lung
OVCAR-8 ovarian = system: OVCAR-8 ovarian
MDA-MB-435 = system: MDA-MB-435
SK-OV-3 ovarian = system: SK-OV-3 ovarian
HT29 colon = system: HT29 colon
SNB-75 CNS = system: SNB-75 CNS
COLO 205 colon = system: COLO 205 colon
BT-549 breast = system: BT-549 breast
HOP-62 NSCLC = system: HOP-62 NSCLC
K-562 leukemia = system: K-562 leukemia
EKVX NSCLC = system: EKVX NSCLC
IGROV1 ovarian = system: IGROV1 ovarian
ACHN renal = system: ACHN renal
UO-31 renal = system: UO-31 renal
HCT-116 colon = system: HCT-116 colon
SW-620 colon = system: SW-620 colon
MDA-N = system: MDA-N
SK-MEL-5 melanoma = system: SK-MEL-5 melanoma
M14 melanoma = system: M14 melanoma
MCF7 breast = system: MCF7 breast
HS 578T breast = system: HS 578T breast
HCT-15 colon = system: HCT-15 colon
MALME-3M melanoma = system: MALME-3M melanoma
T-47D breast = system: T-47D breast
DU-145 prostate = system: DU-145 prostate
UACC-257 melanoma = system: UACC-257 melanoma
RXF 393 renal = system: RXF 393 renal
SK-MEL-2 melanoma = system: SK-MEL-2 melanoma
CCRF-CEM leukemia = system: CCRF-CEM leukemia
RPMI-8226 leukemia = system: RPMI-8226 leukemia
SF-268 CNS = system: SF-268 CNS
OVCAR-5 ovarian = system: OVCAR-5 ovarian
NCI-H460 lung = system: NCI-H460 lung
786-0 renal = system: 786-0 renal
MOLT-4 leukemia = system: MOLT-4 leukemia
LOX IMVI melanoma = system: LOX IMVI melanoma
SR leukemia = system: SR leukemia
A498 renal = system: A498 renal
SF-539 CNS = system: SF-539 CNS

## CC(C(O)Cc1ccccc1)N(C)N=Nc1ccc([N+](=O)[O-])cc1 (stereo unspecified)
PC-3 prostate
  TGI: 40.5 µM
MDA-MB-231 breast
  TGI: 33.7 µM
A549 NSCLC
  TGI: 72 µM
TK-10 renal
  TGI: 47.7 µM
NCI-H23 lung
  TGI: 48.1 µM
U251 CNS
  TGI: 38.5 µM
OVCAR-3 ovarian
  TGI: 36.3 µM
CAKI-1 renal
  TGI: 51.8 µM
SF-295 CNS
  TGI: 46.2 µM
NCI/ADR-RES ovarian
  TGI: 39.9 µM
KM12 colon
  TGI: 53.2 µM
HCC-2998 colon
  TGI: 32.2 µM
SN12C renal
  TGI: 44.9 µM
UACC-62 melanoma
  TGI: 37.6 µM
OVCAR-4 ovarian
  TGI: > 100 µM
SNB-19 CNS
  TGI: > 100 µM
SK-MEL-28 melanoma
  TGI: 39.9 µM
HL-60(TB) leukemia
  TGI: > 100 µM
NCI-H226 lung
  TGI: 39.5 µM
OVCAR-8 ovarian
  TGI: 33.7 µM
MDA-MB-435
  TGI: 40.9 µM
SK-OV-3 ovarian
  TGI: 63.9 µM
HT29 colon
  TGI: 37.2 µM
SNB-75 CNS
  TGI: > 100 µM
COLO 205 colon
  TGI: 39.2 µM
BT-549 breast
  TGI: 40.4 µM
HOP-62 NSCLC
  TGI: 37.5 µM
K-562 leukemia
  TGI: > 100 µM
EKVX NSCLC
  TGI: 73.2 µM
IGROV1 ovarian
  TGI: 43.4 µM
ACHN renal
  TGI: 77 µM
UO-31 renal
  TGI: 31.8 µM
HCT-116 colon
  TGI: 30.2 µM
SW-620 colon
  TGI: 60.6 µM
MDA-N
  TGI: 39.7 µM
SK-MEL-5 melanoma
  TGI: 34.7 µM
M14 melanoma
  TGI: 33.1 µM
MCF7 breast
  TGI: 80.6 µM
HS 578T breast
  TGI: 55.6 µM
HCT-15 colon
  TGI: 61 µM
MALME-3M melanoma
  TGI: 43.3 µM
T-47D breast
  TGI: 74.5 µM
DU-145 prostate
  TGI: 85.5 µM
UACC-257 melanoma
  TGI: 45.4 µM
RXF 393 renal
  TGI: 23.7 µM
SK-MEL-2 melanoma
  TGI: 40.6 µM
CCRF-CEM leukemia
  TGI: > 100 µM
RPMI-8226 leukemia
  TGI: 55.5 µM
SF-268 CNS
  TGI: 47.3 µM
OVCAR-5 ovarian
  TGI: 76.1 µM
NCI-H460 lung
  TGI: 32.3 µM
786-0 renal
  TGI: 38.6 µM
MOLT-4 leukemia
  TGI: > 100 µM

## CCCCN=C(c1ccccc1)N1CCOCC1
PC-3 prostate
  TGI: > 100 µM
MDA-MB-231 breast
  TGI: > 100 µM
TK-10 renal
  TGI: > 100 µM
LOX IMVI melanoma
  TGI: > 100 µM
NCI-H23 lung
  TGI: > 100 µM
U251 CNS
  TGI: > 100 µM
OVCAR-3 ovarian
  TGI: > 100 µM
CAKI-1 renal
  TGI: > 100 µM
SF-295 CNS
  TGI: > 100 µM
NCI/ADR-RES ovarian
  TGI: > 100 µM
KM12 colon
  TGI: > 100 µM
SN12C renal
  TGI: > 100 µM
UACC-62 melanoma
  TGI: > 100 µM
SNB-19 CNS
  TGI: > 100 µM
SK-MEL-28 melanoma
  TGI: > 100 µM
HL-60(TB) leukemia
  TGI: > 100 µM
NCI-H226 lung
  TGI: > 100 µM
OVCAR-8 ovarian
  TGI: > 100 µM
MDA-MB-435
  TGI: > 100 µM
SR leukemia
  TGI: > 100 µM
SK-OV-3 ovarian
  TGI: > 100 µM
HT29 colon
  TGI: > 100 µM
SNB-75 CNS
  TGI: 83.5 µM
COLO 205 colon
  TGI: > 100 µM
BT-549 breast
  TGI: > 100 µM
HOP-62 NSCLC
  TGI: > 100 µM
K-562 leukemia
  TGI: > 100 µM
EKVX NSCLC
  TGI: > 100 µM
A498 renal
  TGI: > 100 µM
IGROV1 ovarian
  TGI: > 100 µM
ACHN renal
  TGI: > 100 µM
UO-31 renal
  TGI: > 100 µM
HCT-116 colon
  TGI: > 100 µM
SW-620 colon
  TGI: > 100 µM
MDA-N
  TGI: > 100 µM
SK-MEL-5 melanoma
  TGI: > 100 µM
M14 melanoma
  TGI: > 100 µM
MCF7 breast
  TGI: > 100 µM
HS 578T breast
  TGI: > 100 µM
HCT-15 colon
  TGI: > 100 µM
MALME-3M melanoma
  TGI: > 100 µM
DU-145 prostate
  TGI: > 100 µM
UACC-257 melanoma
  TGI: > 100 µM
RXF 393 renal
  TGI: > 100 µM
SK-MEL-2 melanoma
  TGI: > 100 µM
CCRF-CEM leukemia
  TGI: > 100 µM
RPMI-8226 leukemia
  TGI: > 100 µM
SF-268 CNS
  TGI: > 100 µM
SF-539 CNS
  TGI: > 100 µM
OVCAR-5 ovarian
  TGI: > 100 µM
NCI-H460 lung
  TGI: > 100 µM
786-0 renal
  TGI: > 100 µM
MOLT-4 leukemia
  TGI: > 100 µM

Reference: PubChem BioAssay (NCI)
